Entries after “also recorded” stand apart in the source; their conditions may differ.
Legend:
IMR-90 = assay: Alcohol toxicity, MTT cell viability assay, IMR-90; assay type: cell-based, human; settings: 24 h, vs untreated control
Protocol: (§1) MTT cell viability assay.
(§2) Alcohol toxicity is disclosed in Table 3: Alcohol toxicity was assessed by exposure of the cells to a given concentration of alcohol to a limit of 3 wt %. Cell activity was determined after 24 h and compared to an untreated control. Data is reported as percentage remaining cell activity (vs control) in 3% alcohol in three individual cell lines. The greater the percentage of remaining activity, the lower the toxicity of the alcohol to the cell line. Thus, Hep G2 cells exposed to 3 wt % 2-ethylhexanol retained 91.2% activity, whereas Hep G2 cells exposed to 3 wt % 2-ethylbutanol retained only 74.6% activity. Thus 2-ethylhexanol is less toxic to Hep G2 cells than 2-ethylbutanol.

Hep G2 = assay: Alcohol toxicity, MTT cell viability assay, Hep G2; assay type: cell-based, human; settings: 24 h, vs untreated control
Protocol: as §1, §2

LLC-PK1 = assay: Alcohol toxicity, MTT cell viability assay, LLC-PK1; assay type: cell-based, porcine; settings: 24 h, vs untreated control
Protocol: as §1, §2

[1] = Solubility of API/dyes with ACA monomers (visual); assay type: physicochemical; settings: typically 5.0 mg in 100 ul monomer, 24 h; for Solubility of CBZ in the monomer (blend): cabazitaxel
Excerpt: Solubility and degree of polymerization were monitored visually.
Where the result is given as ‘soluble’, the API was soluble in the choose monomer with no visual residue, and there can be used as a combination to prepare API loaded nanoparticles. If the results are given as insoluble or partially, it is an indication that this combination cannot be used to prepared API loaded nanoparticles.

[2] = test system: Hep G2 cell line and LLC-PK1
Protocol: Cell lines: The cell lines were used for determining alcohol cytotoxicity Hep G2 (Human liver cancer cell line), LLC-PK1 (Porcine kidney cell line) and IMR-90 (Human lung fibroblast cell line). All medium was fortified with 10% (w/v) fetal calf serum albumin (Sigma) and 100 units/ml penicillin/streptomycin (PenStrep®, Sigma). All cell lines were obtained from ATCC and were routinely tested for mycoplasma. Cells growing in 24- or 96-well plates were incubated with serial dilutions of the alcohol for 24 h, at 37° C. in an atmosphere of 5% CO2. The toxicity was assessed the commonly used MTT (3-(4,5-dimethylthiazol-2-yl)-2,5-diphenyltetrazolium bromide) cell viability assay.
MTT cell viability assay. The cells were incubated for 24 with the different nanoparticles/substances. The cell medium was then aspirated and exchanged with 100 μl of medium containing a final concentration of 250 μg MTT/ml. The incubation was continued for 3 h at 37° C. for formation of the formazan-particles, which were dissolved in DMSO with 1% (v/v) NH4Cl. The absorbance was read in a plate reader (Biosys Ltd, Essex, UK) at 570 nm, and background from absorbance at 650 nm was subtracted.

Solubility of CBZ in the monomer (blend) [1]	Solubility of Alpelisib in the monomer (blend) [1]	Solubility of Mupirocin in the monomer (blend) [1]	Solubility of Oxaliplatin in the monomer (blend) [1]	Compound	Cell activity remaining at 3.00 wt % alcohol (%), IMR-90 (IMR-90)	Cell activity remaining at 3.00 wt % alcohol (%), Hep G2 (Hep G2)	Cell activity remaining at 3.00 wt % alcohol (%), LLC-PK1 (LLC-PK1)	further results
–	–	–	–	CCCCCCCCO [1-octanol (control), 1-octanol, reference compound]	0.9%	69.8%	1.8%	–
–	–	–	–	CCCCC(O)CC (stereo not drawn) [3-heptanol]	81.7%	81.4%	96.4%	–
–	–	–	–	CCCCCO [1-pentanol]	57.1%	63.3%	83.4%	–
–	–	–	–	C=C(C#N)C(=O)OCC(CC)CC [EBCA (control), 2-ethylbutyl cyanoacrylate, reference compound]	–	–	–	Solubility of Belinostat in the monomer (blend) [1]: not
Soluble	Soluble	Insoluble	Insoluble	C=C(C#N)C(=O)OCCCCC [1-PCA, 1-pentyl cyanoacrylate]	–	–	–	–
–	–	–	–	CCCCC(CC)CO (stereo not drawn) [2-ethylhexanol]	7.9%	91.2%	79.8%	–
dissolves	dissolves	–	dissolves	C=C(C#N)C(=O)OCCc1ccccc1 [2-PECA, 2-phenylethyl cyanoacrylate]	–	–	–	–
–	–	–	–	1-butanol [1-butanol (control), reference compound]	59.7%	61.8%	81.8%	–
–	–	–	–	CCCCCCCO [1-heptanol]	58.3%	72.3%	61.8%	–
–	–	–	–	CCCCCC(C)O (stereo not drawn) [2-heptanol]	50.7%	73.9%	81.1%	–
Soluble	Soluble	Insoluble	Insoluble	C=C(C#N)C(=O)OCCC(C)C [3-MBCA, 3-methylbutyl cyanoacrylate]	–	–	–	–
–	–	–	–	CC(C)(C)CCO [3,3-dimethylbutanol]	81.7%	84.8%	98.2%	–
–	–	–	–	CC(C)CCO [3-methylbutanol]	67.6%	72.4%	94.3%	–
–	–	–	–	CCC(CC)CO [2-ethylbutanol (control), 2-ethylbutanol, reference compound]	69.1%	74.6%	86.2%	–
–	–	–	–	OCCc1ccccc1 [2-phenylethanol]	0.6%	0.9%	1.1%	Toxicity at 3% alcohol [2]: significant toxicity
Soluble	Soluble	Insoluble	Insoluble	C=C(C#N)C(=O)OCCC(C)(C)C [3,3-DMBCA, 3,3-dimethyl-1 butyl cyanoacrylate]	–	–	–	–
Soluble	Soluble	Soluble; also recorded: able to dissolve	Insoluble	C=C(C#N)C(=O)OC(C)CCCCC (stereo not drawn) [2-HPCA, 2-heptyl cyanoacrylate]	–	–	–	–
–	–	–	–	CCC(O)CC [3-pentanol]	84.6%	89.7%	78.6%	–
–	–	insoluble	–	C=C(C#N)C(=O)OCCCCCCCC [OCA (control), 1-octyl cyanoacrylate, reference compound]	–	–	–	–
Soluble	Soluble	Partially	Insoluble	C=C(C#N)C(=O)OC(CC)CCCC (stereo not drawn) [3-HPCA, 3-heptyl cyanoacrylate]	–	–	–	–
Soluble	Soluble	Soluble; also recorded: able to dissolve	Insoluble	C=C(C#N)C(=O)OC(CC)CC [3-PCA, 3-pentyl cyanoacrylate]	–	–	–	–
Soluble	Soluble	Insoluble	Insoluble	C=C(C#N)C(=O)OCCCCCCC [1-HPCA, 1-heptyl cyanoacrylate]	–	–	–	Solubility of Belinostat in the monomer (blend) [1]: Soluble; Solubility of Docetaxil in the monomer (blend) [1]: Soluble

From patent US12357581B2, “Nanoparticles comprising copolymeric or homopolymeric compounds which comprise cyanoacrylate subunits” (SINTEF TTO AS, priority 2019, dated 2025)
